Reference: patent US9957219B2, “Antidiabetic bicyclic compounds” (Merck Sharp & Dohme Corp., priority 2013, dated 2018)
pEC50: −log10 of the molar value.

Legend:
Human GPR40 [1] = molecular target: T1, Human GPR40 (Homo sapiens, UniProt O14842); assay: Inositol Phosphate Turnover (IP1) assay in HEK cells stably expressing human GPR40; format: cell-based; set-up: expressed in transfected cells; host or cells: HEK cells stably expressing the aequorin reporter
Experimental: (§1) Human and mouse GPR40 stable cell-lines were generated in CHO cells stably expressing NFAT BLA (Beta-lactamase). A human GPR40 stable cell-line was generated in HEK cells stably expressing the acquorin expressing reporter. The expression plasmids were transfected using lipofectamine (Life Technologies) following manufacturer's instructions. Stable cell-lines were generated following drug selection.
The assay was performed in 96-well format. HEK cells stably expressing human GPR40 were plated to be 60-80% confluent within 72 h. After 72 h, the plates were aspirated and the cells washed with inositol-free DMEM (ICN). The wash media was replaced with 150 μL of 3H-inositol labeling media (inositol-free media containing 0.4% human albumin or 0.4% mouse albumin, 1× pen/strep antibiotics, glutamine, 25 mM HEPES to which was added 3H-myo-inositol NEN #NET114A 1 mCi/mL, 25 Ci/mmol diluted 1:150 in loading media with a final specific radioactivity of 1 μCi/150 μL). Alternatively, the human and mouse albumin were added after the overnight labeling step before the addition of LiCl.
The assay was typically run the next day after 18 h labeling. On the day of the assay, 5 μL of 300 mM LiCl were added to all wells and incubated at 37 degrees for 20 min. 0.75 μL of 200× compounds were added and incubated with the cells for 60 min at 37 degrees. The media was then aspirated off and the assay terminated with the addition of 60 μL 10 mM formic acid. The cells were lysed for 60 min at room temperature. 15-30 μL of lysate was mixed with 70 μL/1 mg YSi SPA beads (Amersham) in clear bottom Isoplates. The plates were shaken for 2 h at room temperature. Beads were allowed to settle and the plates are counted in the Wallac Microbeta.

Human GPR40 [2] = molecular target: T1, Human GPR40; assay: FLIPR assay, agonist-induced calcium mobilization in GPR40/CHO NFAT BLA cells; format: cell-based; set-up: expressed in transfected cells
Experimental: as §1
FLIPR (Fluorimetric Imaging Plate Reader, Molecular Devices) assays were performed to measure agonist-induced calcium mobilization of the stable clones. For the FLIPR assay, one day before assay, GPR40/CHO NFAT BLA cells were seeded into black-wall-clear-bottom 384-well plates (Costar) at 1.4×10e4 cells/20 μL medium/well. The cells were incubated with 20 μl/well of the assay buffer (HBSS, 0.1% BSA, 20 mM HEPES, 2.5 mM probenecid, pH 7.4) containing 8 μM fluo-4, AM, 0.08% pluronic acid at room temperature for 100 minutes. Fluorescence output was measured using FLIPR. Compounds were dissolved in DMSO and diluted to desired concentrations with assay buffer. 13.3 μL/well of compound solution was added.

T1 sequence (O14842 whole entry): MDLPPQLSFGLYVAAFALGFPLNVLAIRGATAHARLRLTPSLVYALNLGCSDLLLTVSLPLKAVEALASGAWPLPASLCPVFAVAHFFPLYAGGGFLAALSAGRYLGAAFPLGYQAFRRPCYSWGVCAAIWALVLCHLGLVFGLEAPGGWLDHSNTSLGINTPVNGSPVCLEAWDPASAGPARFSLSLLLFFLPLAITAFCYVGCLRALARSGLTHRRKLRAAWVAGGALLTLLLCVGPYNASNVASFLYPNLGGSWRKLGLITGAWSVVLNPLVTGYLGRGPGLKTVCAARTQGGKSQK

Q: COc1ccc(F)c(-c2ccc3c(c2)CC[C@H]3Oc2cccc([C@H](C3CC3)[C@H](C)C(=O)O)c2F)c1 [Example 4] was tested. Which pEC50 (Human GPR40 [1]) did it give?
A: 8.55

Q: What about the pEC50 (Human GPR40 [2]) of the same compound?
A: 9.70

Q: How did the pEC50 (Human GPR40 [1]) turn out when COc1ccc(F)c(-c2cc3c(cc2F)[C@H](Oc2cccc([C@@H](CC(=O)O)C4CC4)c2)CC3)c1 [Example 33] was run?
A: 6.81

Q: And the pEC50 (Human GPR40 [2])?
A: 7.92

Q: How did the pEC50 (Human GPR40 [1]) turn out when COc1ccc(F)c(-c2cc(F)c3c(c2)CC[C@H]3Oc2cccc([C@@H](CC(=O)O)C3CC3)c2)c1 [Example 31] was run?
A: 5.67

Q: What about the pEC50 (Human GPR40 [2]) of the same compound?
A: 7.44

Q: How did the pEC50 (Human GPR40 [1]) turn out when COc1ccc(F)c(-c2ccc3c(c2F)CC[C@H]3Oc2cccc([C@H](C3CC3)[C@H](C)C(=O)O)c2)c1 [Example 32] was run?
A: 8.35

Q: What about the pEC50 (Human GPR40 [2]) of the same compound?
A: 9.40

Q: What does the source list for COc1ccc(F)c(-c2cc3c(cn2)[C@H](Oc2cccc([C@H](C4CC4)[C@H](C)C(=O)O)c2)CC3)c1 [Example 41]?
A: pEC50 (Human GPR40 [1]): 7.82; pEC50 (Human GPR40 [2]): > 9.70

Q: With COc1ccc(F)c(-c2cnc3c(c2)CC[C@H]3Oc2cccc([C@H](C3CC3)[C@H](C)C(=O)O)c2)c1 [Example 40] as the compound, how does the pEC50 (Human GPR40 [1]) read?
A: 7.04

Q: And the pEC50 (Human GPR40 [2])?
A: 8.70

Q: Which results are given for COc1ccc(F)c(-c2ccc3c(c2F)CC[C@H]3Oc2cccc([C@@H](CC(=O)O)C3CC3)c2)c1 [Example 34]?
A: pEC50 (Human GPR40 [1]): 6.97; pEC50 (Human GPR40 [2]): 8.40

Q: How did the pEC50 (Human GPR40 [1]) turn out when COc1ccc(F)c(-c2ccc3c(c2-c2cccc4ccn(C)c24)CC[C@H]3Oc2cccc([C@H](C3CC3)[C@H](C)C(=O)O)c2)c1 [Example 37] was run?
A: 6.84

Q: What about the pEC50 (Human GPR40 [2]) of the same compound?
A: 9.00

Q: What does the source list for COc1ccc(F)c(-c2ccc3c(c2Cl)CC[C@H]3Oc2cccc([C@@H](CC(=O)O)C3CC3)c2)c1 [Example 36]?
A: pEC50 (Human GPR40 [1]): 6.45; pEC50 (Human GPR40 [2]): 8.15

Q: What does the source list for C[C@H](C(=O)O)[C@H](c1cccc(O[C@@H]2CCc3cc(-c4cc(O)ccc4F)ccc32)c1)C1CC1 [Example 35]?
A: pEC50 (Human GPR40 [1]): 8.54; pEC50 (Human GPR40 [2]): 9.70

Q: With COc1ccc(F)c(-c2ccc3c(c2)CC[C@H]3Oc2cccc([C@@H](CC(=O)O)C3CC3)c2)c1 [Example 1] as the compound, how does the pEC50 (Human GPR40 [1]) read?
A: 7.19

Q: What about the pEC50 (Human GPR40 [2]) of the same compound?
A: 8.70

Q: COc1ccc(F)c(-c2ccc3c(c2C#N)CC[C@H]3Oc2cccc([C@@H](CC(=O)O)C3CC3)c2)c1 [Example 30] was tested. Which pEC50 (Human GPR40 [1]) did it give?
A: 6.39

Q: And the pEC50 (Human GPR40 [2])?
A: 7.66

Q: Which results are given for COc1ccc(F)c(-c2cc3c(cc2F)[C@H](Oc2cccc([C@@H](CC(=O)O)C4CC4)c2)CC3)c1 [Example 39]?
A: pEC50 (Human GPR40 [1]): 6.82; pEC50 (Human GPR40 [2]): 8.30

Q: With COc1ccc(F)c(-c2ccc3c(c2)CC[C@H]3Oc2cccc([C@H](C3CC3)[C@H](C)C(=O)O)c2)c1 [Example 2] as the compound, how does the pEC50 (Human GPR40 [1]) read?
A: 8.54

Q: And the pEC50 (Human GPR40 [2])?
A: 9.40

Q: COc1ccc(F)c(-c2ccc3c(c2)CC[C@H]3Oc2cccc([C@H](C3CC3)[C@@H](C)C(=O)O)c2F)c1 [Example 5] was tested. Which pEC50 (Human GPR40 [1]) did it give?
A: 6.81

Q: And the pEC50 (Human GPR40 [2])?
A: 8.10

Q: How did the pEC50 (Human GPR40 [1]) turn out when COc1ccc(F)c(-c2ccc3c(n2)CC[C@H]3Oc2cccc([C@@H](CC(=O)O)C3CC3)c2)c1 [Example 38] was run?
A: 6.05

Q: What about the pEC50 (Human GPR40 [2]) of the same compound?
A: 7.77
